This is an account of results in patent US8980908B2, “Non-peptidyl, potent, and selective mu opioid receptor antagonists and their use in treating opioid addiction and opioid induced constipation” (Virginia Commonwealth University, priority 2009, dated 2015).

As usually defined, the Ki is the equilibrium dissociation constant of an inhibitor or competing ligand from its target. As usually defined, the EC50 is the concentration that produces a half-maximal response.

Where “and” joins values, the source holds several entries; their conditions need not be identical. Equal values may be shown once. Read-outs that look alike come from different tables or passages of the source. Where only a bound is given, the exact number is not on record here.

The target in series [1] is T1, KOR (Homo sapiens, UniProt P41145).
T1 construct: expressed in transfected cells; host or cells: CHO (Chinese hamster ovary) cell line, membrane preparation
The series can be described thus: Competitive radioligand binding, [3H]diprenorphine, OR-expressed CHO membranes (Examples 5 and 6).

For series [2], the target named is T1, KOR. Kind of series: KOR [35S]GTPγS binding assay (Example 5). In kind it is biochemical. The conditions noted are these: for Emax: read-out: KOR [35S]GTPγS Binding % Emax of U50,488. As to the method:
(§1) The KOR full agonist 2-(3,4-dichlorophenyl)-N-methyl-N-[(1R,2R)-2-pyrrolidin-1-ylcyclohexyl]acetamide 17 (U50,488)41 and DOR full agonist 4-[(R)-[(2S,5R)-4-allyl-2,5-dimethylpiperazin-1-yl](3-methoxyphenyl)methyl]-N,N-diethylbenzamide 18 (SNC80)42 were included in the assays as reference compounds for a maximal effect at the KOR and the DOR, respectively.
(§2) The radioligand binding assay and the [^35S]GTPγS binding assay were conducted using monoclonal OR-expressed Chinese hamster ovarian (CHO) cell lines as described previously.^22,29,36,37 Briefly, for the competition binding assay, [^3H]NLX, [^3H]DPN, and [^3H]NTI were used to label the MOR, the KOR, and the DOR, respectively. Aliquots of a membrane protein (30 μg) were incubated with the corresponding radioligand in the presence of different concentrations of the ligand under investigation in TME buffer (50 mM Tris, 3 mM MgCl2, 0.2 mM EGTA, pH 7.7) at 30° C. for 1.5 h. The bound radioactive ligand was separated from the free radioligand by filtration using the Brandel harvester (Biomedical Research & Development Laboratories, MD). […] The potency of the drugs in displacing the specific binding of the radioligand was determined by linear regression analysis of Hill plots. […] The [^35S]GTPγS functional assays were conducted in the same cell membranes used for the receptor binding assays. Membrane proteins (10 μg) were incubated with varying concentrations of compounds, GDP (10 μM) and 0.1 nM [^35S]GTPγS in assay buffer (50 mM Tris, 3 mM MgCl2, 100 mM NaCl, 0.2 mM EGTA, pH 7.7) for 1.5 h at 30° C. Nonspecific binding was determined with 20 μM unlabeled GTPγS.
(GTPγS resists hydrolysis and so accumulates on activated G proteins.)

Series [3] concerns the target DOR (UniProt P41143). The series can be described thus: DOR [35S]GTPγS binding assay (Example 5). Details: Ki δ; four experiments; other: three experiments; other: SNC80 5 μM; Ki δ. In kind it is biochemical. How it is done:
as §1, §2

Series [4] deals with T2, MOR (Mus musculus, UniProt P42866). The series can be described thus: biochemical. The conditions noted are these: read-out: MOR [35S]GTPγS Binding % Emax of DAMGO.
Series [5] concerns the target DOR (UniProt P41143). Type of series: binding. More on the design: Ki δ; four experiments; other: three experiments; other: SNC80 5 μM; Ki δ.
For series [6], the target named is T2, MOR. Kind of series: 35S-GTP[γS]-binding functional assay in MOR expressing CHO cells (Example 2). In kind it is biochemical. More on the design: expressed in transfected cells; host or cells: CHO (Chinese hamster ovary) cell line, membrane preparation. How it is done: Furthermore, these systems express the receptor at high density to provide optimal signal-to-noise ratios in the radioligand and ^35S-GTP[γS] binding assays.
Aliquots of a membrane preparation were incubated with the radioligands in the presence of different concentrations of the drug under investigation at 30° C. for 1 h. […] The potency of the drugs in displacing the specific binding of the radioligand was determined from data using linear regression analysis of Hill plots. The IC50 values will then be determined and corrected to K1 values using the Cheng-Prusoff equation. Functional assays, including ^35S-GTP[γS]-binding assay were conducted in the same cell membranes used for the receptor binding assays.

The target of series [7] is T2, MOR. Kind of series: [35S]GTPγS functional assay (Example 1). More on the design: expressed in transfected cells; host or cells: CHO (Chinese hamster ovary) cell line, membrane preparation. Type of series: biochemical.
For series [8], the system named is patients with OIC. The conditions noted are these: cited from earlier work.
In series [9] the target is mu, delta and kappa opioid receptors. The conditions noted are these: cited from earlier work.
Series [10] deals with morphine antinociception in mice. Kind of series: Warm-water tail immersion test, blockade of morphine antinociception (Example 2). Type of series: in vivo, mouse (Swiss Webster). The conditions noted are these: s.c., 5 min before morphine 10 mg/kg s.c.; 56 °C.
Series [11] relates to morphine antinociceptive effect in mice. The conditions noted are these: antagonizing morphine 10 mg/kg; s.c.; cited from earlier work.
Series [12] shares this test system. Kind of series: Warm-water tail immersion assay, antagonism of morphine antinociception (Example 5). The conditions noted are these: antagonizing morphine 10 mg/kg; s.c. In kind it is in vivo, mouse (Swiss-Webster).
Series [13] concerns chronic morphine-exposed mice. Kind of series: Opioid withdrawal assays in morphine-pelleted mice. The conditions noted are these: naltrexone 1 mg/kg, counted over 20 minutes.
Series [14] concerns the target T2, MOR. The conditions noted are these: [35S]GTPγS assays.
In series [15] the target is T2, MOR. Kind of series: Competitive radioligand binding, [3H]naloxone, OR-expressed CHO membranes (Examples 5 and 6). Details: expressed in transfected cells; host or cells: CHO (Chinese hamster ovary) cell line, membrane preparation. The conditions noted are these: Table 8; Ki ratio.
Setting [16] is: read-out: DOR [35S]GTPγS Binding EC50; three experiments.
The mark [17] stands for this setting: read-out: Ki δ; Table 8 (NAQ analogues); four experiments.

As to `COc1c(C(=O)N[C@H]2CC[C@@]3(O)[C@H]4Cc5ccc(O)c6c5[C@@]3(CCN4CC3CC3)[C@H]2O6)nc(Cl)c2ccccc12` [Compound 4, 17-Cyclopropylmethyl-3,14β-dihydroxy-4,5α-epoxy-6α-(1-chloro-4-methoxyisoquinoline-3-carboxamido)morphinan], the results for the Ki in [1] and in series [5] (setting [17]) were 22.2 ± 2.1 nM and 33.9 ± 0.5 nM, respectively. Besides, the concentration for a half-maximal effect (EC50) in series [2] was found to be 26.4 ± 3.9 nM; in series [3] (setting [16]) it was 32.6 ± 5.1 nM. For the same compound, the Emax in [2] was determined as 7.1 ± 0.5%; in [4], 51 ± 0.4%. Moreover, in series [3] (SNC80 5 μM), the “DOR [35S]GTPγS Binding % Emax of SNC80” value stood at 54.8 ± 0.1%.

As to `C[C@@H](NC(=O)[C@@H](N)Cc1ccc(O)cc1)C(=O)NCC(=O)N(C)[C@@H](Cc1ccccc1)C(=O)NCCO` [DAMGO, reference compound], the “Emax (% Stim)” value in [6] (n=3) was found to be 366.5 ± 23.0 % Stim. The “Percent Max of DAMGO” value in series [6] (normalized to full agonist DAMGO (3 μM)) is on record as 100.0 ± 6.2%. The Emax in series [7] (DAMGO reference) came out at 366±23 % stimulation over basal.

As for `C[C@@H](O)[C@H](NC(=O)[C@H]1NC(=O)[C@H]([C@@H](C)O)NC(=O)[C@H](CCCNC(=N)N)NC(=O)[C@@H](Cc2c[nH]c3ccccc23)NC(=O)[C@H](Cc2ccc(O)cc2)NC(=O)[C@@H](NC(=O)[C@H](N)Cc2ccccc2)CSSC1(C)C)C(N)=O` [CTAP, D-Phe-Cys-Tyr-D-Trp-Arg-Thr-Pen-Thr-NH2], the “Percent Max of DAMGO” value in series [7] (Emax of compound vs Emax of DAMGO (normalized to 100%)) is 0.00%.

Regarding `C[N@+]1(CC2CC2)CC[C@]23c4c5ccc(O)c4O[C@H]2C(=O)CC[C@@]3(O)[C@H]1C5` [MNTX, methylnaltrexone], the “efficiency to induce SBM” value in series [8] (human, in vivo) is at most 62%. Moreover, in [8] (two major clinical trials, subcutaneous), the “patients with laxation within 4 hours after the first dose” value is 48% and 62%. Also, in [9], the “Ki value ratio delta/mu” value was “≈ 24” and the “Ki value ratio kappa/mu” value is 10.

With “17-Cyclopropylmethyl-3,14β-dihydroxy-4,5α-epoxy-6α-[(3′-isoquinolyl)acetamido]morphinan [Compound 9]”, in series [3] (SNC80 5 μM), the “DOR [35S]GTPγS Binding % Emax of SNC80” value is 53.5 ± 5.4%. Also, in [3] (three experiments; read-out: DOR [35S]GTPγS Binding EC50), the 50% effective concentration (EC50) turned out to be 98.6 ± 23.7 nM. For the same compound, in series [10], the “AD50 value for blockade of morphine antinociception” value was 0.456 (0.277 to 0.789) mg/kg (95% C.L.). The Ki in series [5] (Table 8 (NAQ analogues); four experiments; read-out: Ki δ) and in series [5] (Table 12 (Example 6); read-out: Ki δ) was 162 ± 15 nM in each case. Besides, in series [11], the “AD50 values (data taken from Li, et al.)” value is listed as 0.45 (0.27-0.78) mg/kg (95% CL).

Take `O=C1CC[C@@]2(O)[C@H]3Cc4ccc(O)c5c4[C@@]2(CCN3CC2CC2)[C@H]1O5` [Naltrexone]: the AD50 values in series [12] was 0.006 (0.003-0.014) mg/kg (95% CL). Also, in [13], the escape jumps was found to be 30.0±12.1 and the wet-dog shakes was determined as 14.8±2.2.

For `O=C(N[C@H]1CC[C@@]2(O)[C@H]3Cc4ccc(O)c5c4[C@@]2(CCN3CC2CC2)[C@H]1O5)c1cc2cc([N+](=O)[O-])ccc2cn1` [Compound 11, 17-Cyclopropylmethyl-3,14β-dihydroxy-4,5α-epoxy-6α-(6-nitroisoquinoline-3-carboxamido)morphinan], in series [1], the affinity corresponds to a Ki of 27.9 ± 2 nM. Further, in series [2], the EC50 is 62.6 ± 10.4 nM and the Emax was found to be 21.1 ± 0.4%. The “DOR [35S]GTPγS Binding % Emax of SNC80” value in series [3] (SNC80 5 μM) is 67.7 ± 2.0%. Besides, the 50% effective concentration (EC50) in series [3] (setting [16]) stood at 108.1 ± 0.8 nM. For the same compound, in series [14], the “Functional Selectivity δ/μ” value amounted to 3.4 and the “Functional Selectivity κ/μ” value was 2.0. Also, in [15], the “Selectivity δ/μ” value was determined as 16 and the “Selectivity κ/μ” value is listed as 4.9. In series [4], the Emax turned out to be 12.5 ± 1.4%. The AD50 values in series [12] was 0.92 (0.51-1.67) mg/kg (95% CL). The Ki in series [5] (setting [17]) stood at 94.7 ± 1.1 nM.

On to `COc1cccc2c1[C@]13CCN(CC4CC4)[C@H](C2)[C@]1(OC)CCC(=O)C3` [cyprodime], for which, in series [9], the “Ki value ratio delta/mu” value is “≈ 40” and the “Ki value ratio kappa/mu” value is “≈ 45”.
